Source: patent publication US20080292619A1, “Pharmaceutical Composition Containing Meltrin Antagonist” (MOCHIDA PHARMACEUTICAL CO., LTD., priority 2004, published 2008)
In the oligonucleotide strings, read from the 5' end, every base follows the letter of its sugar. An asterisk marks phosphorothioate; unmarked linkages are phosphodiester. Other units and linkages are bracketed, terminal groups are in braces. A string of capitals states the bases alone. d = 2'-deoxy (DNA)

Tested on: human meltrin α RNA
Assay: Suppression of human meltrin α expression by antisense compound in RD cell (real time PCR)
Assay type: cell-based
Conditions: 50 nM; RD cell; corrected by GAPDH
Method: First, RD cell (ATCC) was suspended in DMEM containing 10% fetal bovine serum (FBS, SIGMA), and the suspension was inoculated in 6 well culture plate at 2.5×10^5 cells/well/2 mL. After incubating overnight at 37° C. in the presence of 5% CO2, the cells were washed twice with serum-free DMEM, and Opti-MEM medium (GIBCO) was added at 800 μL/well.
Gene transfection reagent Lipofectin (Invitrogen) was diluted with Opti-MEM to 20 μg/mL, and the dilution was allowed to stand at room temperature for 30 minutes. Next, the antisense oligodeoxynucleotide synthesized as described above was heated at 90° C. for 3 minutes, and after quenching on ice, diluted with Opti-MEM to a concentration 10 times higher than the final concentration. Equal amounts of the Lipofectin in Opti-MEM and the antisense oligo DNA in Opti-MEM were mixed, and the mixture was incubated at room temperature for 15 minutes and added to 6 well plate at 200 μL/well.
The culture was incubated at 37° C. for 4 hours in the presence of 5% CO2, and the culture supernatant containing the Lipofectin was removed. The cells were washed twice with serum-free DMEM, and after adding 1 mL/well of Opti-MEM and incubating for 18 hours at 37° C. in the presence of 5% CO2, the cells were subjected to the measurement of the level of expression of meltrin α RNA.
After the washing, RNA was isolated from the cell by using RNA isolation kit (RNeasy Micro Kit, QIAGEN) according to the protocol of the kit, and RNA concentration was determined by measuring absorbance at a wavelength of 260 nm with a spectrophotometer (Nano prop, LMS Co., Ltd.) (1OD=40 μg/mL). After the quantitation, the RNA was prepared to a concentration of 0.1 μg/μL by using DEPC-treated water.
0.35 μg of the isolated RNA, and 3.5 μL of 10× TaqMan buffer, 7.7 μL of 25 mM MgCl2, 7.0 μL of 2.5 mM each dNTP Mix, 1.75 μL of 50 μM Random Hexamers, 0.7 μL of 20 U/μL RNase inhibitor, and 0.9 μL of 50 U/μL MultiScribe Reverse Transcriptase (all purchased from Applied Biosystems) were mixed, and water was added to make up the total volume to 35 μL. This solution was maintained at 25° C. for 10 minutes, at 48° C. for 30 minutes, and at 95° C. for 5 minutes, and reverse transcription was conducted to synthesize cDNA.
A solution in total volume of 20 μL containing 10 μL of TaqMan Universal PCR Master Mix, 0.4 μL of 10 μM TaqMan MGB Probe (sequence 5′FAM-caccgaaggacaatccca-MGB-3′: Applied Biosystems), 0.1 μL of 50 μM Forward primer (sequence ggaagccgccagattcct) for detecting meltrin α, 0.1 μL of 50 μM Reverse primer (sequence […]) for detecting meltrin α (all purchased from Sigma-Genosys), 5 μL of the cDNA solution of (3), and 4.4 μL of water was prepared, and after maintaining the solution at 50° C. for 2 minutes and at 95° C. for 10 minutes, PCR was conducted by repeating 40 cycles of 95° C. for 15 seconds and 60° C. for 1 minute in ABI Prism 7000.
The amount of the human meltrin α RNA was measured by conducting real time PCR by using the plasmid containing the cDNA coding for the human meltrin α for the template to generate the standard curve, and calculating RNA copy number of the meltrin α in each sample. The level of expression of GAPDH was also determined by using a primer and probe set for real time PCR of human GAPDH (Pre-Developed TaqMan Assay Reagents Human GAPDH (20×) (Cat# 4310884E, Applied Biosystems).
The results of the real time PCR of the meltrin α was corrected by the level of expression of the GAPDH to calculate the suppression rate. […]

Substance | suppression rate of expression, 50 nM
H141 + 15: cctaagtgcaggcttggctg (CCTAAGTGCAGGCTTGGCTG; antisense; DNA, all phosphorothioate, methylation of C not given here) | + (“+” when the suppression rate was at least 30%)
H136 + 18: tgagggacattcaggccgtt (TGAGGGACATTCAGGCCGTT; antisense; DNA, all phosphorothioate, methylation of C not given here) | ++ (“++” when the suppression rate was at least 50%)
H134: atctcctgggattgtccttc (ATCTCCTGGGATTGTCCTTC; antisense; DNA, all phosphorothioate, methylation of C not given here) | + (“+” when the suppression rate was at least 30%)
H139 + 15: ctaggtgcacgtggggcccg (CTAGGTGCACGTGGGGCCCG; antisense; DNA, all phosphorothioate, methylation of C not given here) | +++ (“+++” when the suppression rate was at least 70%)
H146 + 10: ctggccaaggcatgagtgag (dC*dT*dG*dG*dC*dC*dA*dA*dG*dG*dC*dA*dT*dG*dA*dG*dT*dG*dA*dG; antisense) | + (“+” when the suppression rate was at least 30%)
H018: cagggcgagcaggagggcgc (CAGGGCGAGCAGGAGGGCGC; antisense; DNA, all phosphorothioate, methylation of C not given here) | + (“+” when the suppression rate was at least 30%)
H133 + 3: ttcggtgggtaggaatctgg (TTCGGTGGGTAGGAATCTGG; antisense; DNA, all phosphorothioate, methylation of C not given here) | + (“+” when the suppression rate was at least 30%)
H133 + 1: cggtgggtaggaatctggcg (CGGTGGGTAGGAATCTGGCG; antisense; DNA, all phosphorothioate, methylation of C not given here) | ++ (“++” when the suppression rate was at least 50%)
H137: gctgagggacattcaggccg (GCTGAGGGACATTCAGGCCG; antisense; DNA, all phosphorothioate, methylation of C not given here) | ++ (“++” when the suppression rate was at least 50%)
H137 + 1: ggctgagggacattcaggcc (GGCTGAGGGACATTCAGGCC; antisense; DNA, all phosphorothioate, methylation of C not given here) | ++ (“++” when the suppression rate was at least 50%)
H138: cactcgctgagttgactggg (CACTCGCTGAGTTGACTGGG; antisense; DNA, all phosphorothioate, methylation of C not given here) | ++ (“++” when the suppression rate was at least 50%)
H143 + 14: cttctgaggggggtttggct (CTTCTGAGGGGGGTTTGGCT; antisense; DNA, all phosphorothioate, methylation of C not given here) | + (“+” when the suppression rate was at least 30%)

Same assay, conditions: 200 nM; RD cell; corrected by GAPDH

Substance | suppression rate of expression, 200 nM
H210: ccccatagagaaggttcttt (dC*dC*dC*dC*dA*dT*dA*dG*dA*dG*dA*dA*dG*dG*dT*dT*dC*dT*dT*dT; antisense) | ++ (“++” when the suppression rate was at least 50%)
H171: gggactgctttccaataagg (dG*dG*dG*dA*dC*dT*dG*dC*dT*dT*dT*dC*dC*dA*dA*dT*dA*dA*dG*dG; antisense) | ++ (“++” when the suppression rate was at least 50%)
H164: atgcctactacagcgcactg (dA*dT*dG*dC*dC*dT*dA*dC*dT*dA*dC*dA*dG*dC*dG*dC*dA*dC*dT*dG; antisense) | ++ (“++” when the suppression rate was at least 50%)
H153: ctgttgaaaaaaggtgtcgg (dC*dT*dG*dT*dT*dG*dA*dA*dA*dA*dA*dA*dG*dG*dT*dG*dT*dC*dG*dG; antisense) | ++ (“++” when the suppression rate was at least 50%)
H076: tccaggctggtctccaagtc (dT*dC*dC*dA*dG*dG*dC*dT*dG*dG*dT*dC*dT*dC*dC*dA*dA*dG*dT*dC) | ++ (“++” when the suppression rate was at least 50%)
H123: caggatggtcaccagaattc (CAGGATGGTCACCAGAATTC; antisense; DNA, all phosphorothioate, methylation of C not given here) | + (“+” when the suppression rate was at least 30%)
H134: atctcctgggattgtccttc (ATCTCCTGGGATTGTCCTTC; antisense; DNA, all phosphorothioate, methylation of C not given here) | ++ (“++” when the suppression rate was at least 50%)
H021: tcttccttggttccataagc (TCTTCCTTGGTTCCATAAGC; antisense; DNA, all phosphorothioate, methylation of C not given here) | + (“+” when the suppression rate was at least 30%)
H082: tcctctggctccccacagtc (dT*dC*dC*dT*dC*dT*dG*dG*dC*dT*dC*dC*dC*dC*dA*dC*dA*dG*dT*dC; antisense) | + (“+” when the suppression rate was at least 30%)
H018: cagggcgagcaggagggcgc (CAGGGCGAGCAGGAGGGCGC; antisense; DNA, all phosphorothioate, methylation of C not given here) | ++ (“++” when the suppression rate was at least 50%)
H043: gtgttgtgatgtgatccaca (GTGTTGTGATGTGATCCACA; antisense; DNA, all phosphorothioate, methylation of C not given here) | + (“+” when the suppression rate was at least 30%)
H221: gaaacatggctccctagtca (dG*dA*dA*dA*dC*dA*dT*dG*dG*dC*dT*dC*dC*dC*dT*dA*dG*dT*dC*dA; antisense) | + (“+” when the suppression rate was at least 30%)
H117: gcagtggcagttcttcctgt (GCAGTGGCAGTTCTTCCTGT; antisense; DNA, all phosphorothioate, methylation of C not given here) | + (“+” when the suppression rate was at least 30%)
H028: ctttccagatttatgatcag (CTTTCCAGATTTATGATCAG; antisense; DNA, all phosphorothioate, methylation of C not given here) | + (“+” when the suppression rate was at least 30%)
H137: gctgagggacattcaggccg (GCTGAGGGACATTCAGGCCG; antisense; DNA, all phosphorothioate, methylation of C not given here) | ++ (“++” when the suppression rate was at least 50%)
H033: gtgacccagaattaccgtgt (GTGACCCAGAATTACCGTGT; antisense; DNA, all phosphorothioate, methylation of C not given here) | + (“+” when the suppression rate was at least 30%)
H250: atctaaggatttgggcatct (DNA dA*dT*dC*dT*dA*dA*dG*dG*dA*dT*dT*dT*dG*dG*dG*dC*dA*dT*dC*dT; antisense) | + (“+” when the suppression rate was at least 30%)
H138: cactcgctgagttgactggg (CACTCGCTGAGTTGACTGGG; antisense; DNA, all phosphorothioate, methylation of C not given here) | +++ (“+++” when the suppression rate was at least 70%)
H079: tggcccccgaaagactccct (dT*dG*dG*dC*dC*dC*dC*dC*dG*dA*dA*dA*dG*dA*dC*dT*dC*dC*dC*dT; antisense) | ++ (“++” when the suppression rate was at least 50%)
H107: ggcctccttgctgcaggggg (dG*dG*dC*dC*dT*dC*dC*dT*dT*dG*dC*dT*dG*dC*dA*dG*dG*dG*dG*dG; antisense) | ++ (“++” when the suppression rate was at least 50%)
H003: ccgttgcaataaatgagcaa (CCGTTGCAATAAATGAGCAA; antisense; DNA, all phosphorothioate, methylation of C not given here) | + (“+” when the suppression rate was at least 30%)
